This note sets out measurements from patent publication US8916526B2, “Flavanone derivative” (National University Corporation Okayama University, priority 2009, dated 2014).

Data set [1] deals with T1, DNA gyrase of Escherichia coli (Escherichia coli, UniProt P0AES4+P0AES6).
T1 construct: purchased John Innes Enterprises #K0001
The experiment in a line: DNA gyrase inhibition (supercoiling assay kit), Exp. Ex. 1-2. The data set is classed as biochemical. Conditions: for Gyrase inhibitory activity IC50: E. coli DNA gyrase supercoiling, relaxed pBR322, 37° C., 30 minutes. The procedure, abridged:
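Relaxed pBR322 DNA […] supercoiled by 1 U E. coli gyrase for 30 min at 37 °C in 35 mM Tris-HCl pH 7.5, 24 mM KCl, 4 mM MgCl2, 2 mM DTT, 1.8 mM spermidine, 1 mM ATP, 6.5% glycerol, 0.1 mg/ml BSA. Products resolved by gel electrophoresis; IC50 determined.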

Data set [2] can be described thus: Acute toxicity evaluation experiment. To be noted: ICR mice, observed over 7 days, four mice.
Protocol: (§2) An acute toxicity test of the compound of the present invention was carried out using ICR mice as experimental animals.
The subject of data set [3] is MRSA OM481. The experiment in a line: In vitro infectivity assay (MIC), broth dilution, Exp. Ex. 1-1. The data set is classed as cell-based, Staphylococcus aureus. To be noted: MRSA OM481; Mueller-Hinton broth, 35° C., 24 hours. The essentials: (§1)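 CLSI broth microdilution: strains inoculated at about 10^5 CUF/[…] in Mueller-Hinton broth with 0.85% NaCl, incubated 35° C. for 24 hours. MIC read as lowest inhibitory concentration; measured three times.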

In data set [4] the test system is MRSA OM58. Described as above. The data set is classed as cell-based, Staphylococcus aureus. To be noted: MRSA OM58; Mueller-Hinton broth, 35° C., 24 hours. The procedure, abridged: as §1
Data set [5] deals with MRSA N315. The description is as above. The format is cell-based, Staphylococcus aureus. To be noted: MRSA N315; Mueller-Hinton broth, 35° C., 24 hours. The essentials: as §1
Data set [6] deals with MSSA FDA 209P. The description is as above. The format is cell-based, Staphylococcus aureus. To be noted: MSSA FDA 209P; Mueller-Hinton broth, 35° C., 24 hours. The essentials:
as §1

In data set [7] the test system is VISA Mu50. The description is as above. The format is cell-based, Staphylococcus aureus. Conditions: VISA Mu50; Mueller-Hinton broth, 35° C., 24 hours. The essentials: as §1
The conditions of data set [8]: mouse, in vivo, 10 mg/kg.
Protocol: as §2
The test system of data set [9] is various strains such as MRSA, VISA, MSSA and VRE. Kind of data set: In vitro infectivity assay (MIC), Exp. Ex. 1-1, strains taken together. The data set is classed as cell-based, Staphylococcus aureus, enterococci. Conditions: summary of Table 1. On the procedure: The antibacterial activities were measured based on broth dilution techniques of international standards (Clinical Laboratory Standards Institute: CLSI). The activities were shown by minimum inhibitory concentrations (MICs) determined by inoculating the above-mentioned strains at a concentration of about 10^5 […] into Mueller-Hinton broth (manufactured by Difco) containing 0.85% NaCl in 96-well microplates and incubating the plates at 35° C. for 24 hours. Measurement was carried out three times.
The antibacterial activities of the compounds of the present invention against various strains such as methicillin-resistant Staphylococcus aureus (MRSA), vancomycin intermediate-resistant Staphylococcus aureus (VISA), methicillin-sensitive Staphylococcus aureus (MSSA), and vancomycin-resistant enterococci (VRE) were examined. Of the bacteria used in MIC measurement in this test example, clinical bacteria of MRSA (OM481 strain and OM584 strain) were supplied from Okayama University Hospital (Japan). An MRSA strain N315, a vancomycin intermediate-resistant Staphylococcus aureus (VISA) strain Mu50, and a methicillin-sensitive Staphylococcus aureus (MSSA) strain FDA 209P were used as controls. Vancomycin-resistant enterococcus (VRE) strains NCTC 12201 and FN-1 were supplied from the National Institute of Infectious Disease (Japan).

Data set [10] concerns VRE FN-1. The experiment in a line: In vitro infectivity assay (MIC), broth dilution, Exp. Ex. 1-1. To be noted: VRE FN-1; Mueller-Hinton broth, 35° C., 24 hours. The format is cell-based, enterococci. The procedure, abridged:
as §1

For data set [11], the system named is VRE NCTC12201. Described as above. To be noted: VRE NCTC12201; Mueller-Hinton broth, 35° C., 24 hours. The data set is classed as cell-based, enterococci. The essentials: as §1

≈ marks a conversion by molar mass, not a printed value.

T1 sequence (P0AES4 whole entry, one chain of several): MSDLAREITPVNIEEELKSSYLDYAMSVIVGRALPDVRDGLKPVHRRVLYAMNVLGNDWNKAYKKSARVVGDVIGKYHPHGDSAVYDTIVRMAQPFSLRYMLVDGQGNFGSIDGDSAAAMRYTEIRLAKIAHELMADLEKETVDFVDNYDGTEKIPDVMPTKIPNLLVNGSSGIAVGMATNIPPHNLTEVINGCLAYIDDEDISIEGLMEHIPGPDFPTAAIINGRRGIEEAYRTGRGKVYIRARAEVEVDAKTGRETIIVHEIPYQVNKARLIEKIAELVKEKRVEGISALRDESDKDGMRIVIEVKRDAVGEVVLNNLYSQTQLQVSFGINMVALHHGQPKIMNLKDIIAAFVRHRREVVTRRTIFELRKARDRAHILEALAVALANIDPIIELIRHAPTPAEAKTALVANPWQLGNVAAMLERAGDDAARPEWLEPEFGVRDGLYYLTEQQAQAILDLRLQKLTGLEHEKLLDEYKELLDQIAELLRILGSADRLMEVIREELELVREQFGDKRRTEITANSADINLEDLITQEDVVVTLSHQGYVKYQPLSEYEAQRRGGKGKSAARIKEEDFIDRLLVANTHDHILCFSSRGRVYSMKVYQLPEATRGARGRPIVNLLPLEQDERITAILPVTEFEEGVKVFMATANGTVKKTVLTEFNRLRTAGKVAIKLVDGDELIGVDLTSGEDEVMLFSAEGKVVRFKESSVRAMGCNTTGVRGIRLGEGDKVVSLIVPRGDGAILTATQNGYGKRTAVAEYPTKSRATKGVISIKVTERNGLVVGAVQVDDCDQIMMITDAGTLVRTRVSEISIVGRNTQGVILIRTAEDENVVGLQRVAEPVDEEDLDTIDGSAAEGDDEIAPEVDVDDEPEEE

`O=C(CCc1ccc(F)cc1)O[C@H]1[C@H](Oc2c(-c3ccc(O)c(O)c3)oc3cc(O)cc(O)c3c2=O)O[C@H](CO)[C@@H](O)[C@@H]1OC(=O)CCc1ccc(F)cc1` [Compound 15d, 2-(3′,4′-Dihydroxy)-5,7-dihydroxy-3-β-D-(2″,3″-di-p-flurophenylethylcarboxy)glucosyl-4H-chromen-4-one]: the “Gyrase inhibitory activity IC50” value in data set [1] is 0.22 mg/L. The “Gyrase inhibitory effect compared with norfloxacin (in words)” value in data set [1] (summary of Table 2) was “inhibitory effect equal to or greater than that of an existing gyrase inhibitor such as norfloxacin”. For the same compound, the Mortality result in data set [2] (10 mg/kg for 4 consecutive days) is on record as “All the mice were not dead until day 7”; in data set [2] (100 mg/kg for 4 consecutive days) it was “all the mice in the group were dead on days 5 to 7 after administration”. In addition, the “MIC MRSA OM481” value in data set [3] turned out to be 2 mg/L (≈ 2.62 µM). In data set [4], the “MIC MRSA OM58” value was determined as 2 mg/L (≈ 2.62 µM). Moreover, the “MIC MRSA N315” value in data set [5] came to 0.25 mg/L (≈ 0.327 µM). Besides, the “MIC MSS 209P” value in [6] turned out to be 0.25 mg/L (≈ 0.327 µM). Also, the “MIC VISA Mu50” value in data set [7] turned out to be 1 mg/L (≈ 1.31 µM). Besides, the “Changes in the body weights” value in [8] is on record as “the body weights were slightly reduced from the day after administration, but the body weights of all the four mice were recovered from about day 5 after administration”. In addition, the “Antibacterial activities against the vancomycin resistant bacteria such as VRE and VISA (in words)” value (shortened to “Antibacterial activities”) in data set [9] is reported as “strong antibacterial activities”. Further, in data set [10], the “MIC VRE FN-1” value is 1 mg/L (≈ 1.31 µM). The “MIC VRE NCTC 12201” value in data set [11] amounted to 1 mg/L (≈ 1.31 µM).

In the case of “2-(3′,4′-Dihydroxy)-5,7-dihydroxy-3-β-D-(2″,3″-di-p-flurobenzyloxy)glucosyl-4H-chromen-4-one [Compound 15h]”, the “MIC MRSA OM481” value in [3] came out at 8 mg/L. Besides, the “MIC MRSA OM58” value in data set [4] turned out to be 8 mg/L. Moreover, the “MIC MRSA N315” value in data set [5] is 2 mg/L. In addition, the “MIC MSS 209P” value in [6] was found to be 2 mg/L. Moreover, the “MIC VISA Mu50” value in [7] turned out to be 2 mg/L. Also, in data set [9], the “Antibacterial activities” value is listed as “strong antibacterial activities”. In data set [10], the “MIC VRE FN-1” value worked out at 8 mg/L. In addition, the “MIC VRE NCTC 12201” value in data set [11] was determined as 8 mg/L.

For the compound `Cc1ccc(CCC(=O)O[C@H]2[C@H](Oc3c(-c4ccc(O)c(O)c4)oc4cc(O)cc(O)c4c3=O)O[C@H](CO)[C@@H](O)[C@@H]2OC(=O)CCc2ccc(C)cc2)cc1` [Compound 15c, 2-(3′,4′-Dihydroxy)-5,7-dihydroxy-3-β-D-(2″,3″-di-p-methylphenylethylcarboxy)glucosyl-4H-chromen-4-one], the “Gyrase inhibitory activity IC50” value in data set [1] worked out at 3.50 mg/L. Also, the “MIC MRSA OM481” value in [3] amounted to 2 mg/L (≈ 2.64 µM). Also, the “MIC MRSA OM58” value in data set [4] is 2 mg/L (≈ 2.64 µM). Besides, the “MIC MRSA N315” value in data set [5] is 1 mg/L (≈ 1.32 µM). Further, the “MIC MSS 209P” value in data set [6] amounted to 1 mg/L (≈ 1.32 µM). Moreover, in data set [7], the “MIC VISA Mu50” value turned out to be 1 mg/L (≈ 1.32 µM). Further, in data set [9], the “Antibacterial activities” value is on record as “strong antibacterial activities”. Further, in data set [10], the “MIC VRE FN-1” value is 2 mg/L (≈ 2.64 µM). Also, the “MIC VRE NCTC 12201” value in data set [11] is 4 mg/L (≈ 5.29 µM).
